According to ChEMBL document CHEMBL1135472 (J Med Chem, 2002):
Active and inactive are the calls of the source. No cut-off for these calls is given here.

Biological target: T1, Polyunsaturated fatty acid lipoxygenase ALOX15 (Homo sapiens, UniProt P16050)
T1 sequence (P16050 whole entry): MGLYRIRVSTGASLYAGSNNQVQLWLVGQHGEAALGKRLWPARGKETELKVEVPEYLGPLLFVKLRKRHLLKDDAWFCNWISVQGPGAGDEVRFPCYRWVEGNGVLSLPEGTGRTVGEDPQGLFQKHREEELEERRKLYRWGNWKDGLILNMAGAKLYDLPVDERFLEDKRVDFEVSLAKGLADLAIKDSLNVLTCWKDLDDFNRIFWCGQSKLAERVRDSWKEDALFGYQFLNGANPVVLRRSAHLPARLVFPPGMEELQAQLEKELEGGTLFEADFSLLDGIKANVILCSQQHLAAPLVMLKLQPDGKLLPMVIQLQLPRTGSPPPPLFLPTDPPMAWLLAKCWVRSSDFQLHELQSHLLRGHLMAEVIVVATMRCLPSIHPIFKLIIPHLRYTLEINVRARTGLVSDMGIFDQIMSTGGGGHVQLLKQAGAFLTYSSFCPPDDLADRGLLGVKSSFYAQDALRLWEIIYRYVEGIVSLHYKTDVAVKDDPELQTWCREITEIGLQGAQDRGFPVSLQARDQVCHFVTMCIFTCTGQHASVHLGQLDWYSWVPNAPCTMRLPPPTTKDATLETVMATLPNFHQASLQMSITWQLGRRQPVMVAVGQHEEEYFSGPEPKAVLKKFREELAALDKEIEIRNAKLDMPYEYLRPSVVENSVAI
Assay: Concentration that cause 50% activation of human reticulocyte 15-lipoxygenase (15-HLO)
Settings: not given

**Q.** For `CCCC(=O)Oc1ccc(C[C@@H](C)[C@@H](C)Cc2ccc(OC(=O)CCC)c(OC(=O)CCC)c2)cc1OC(=O)CCC`, which AC50 is on record?
**A.** 300 nM

**Q.** Which AC50 does the source give for `CCCCCC(=O)Oc1ccc(C[C@@H](C)[C@@H](C)Cc2ccc(OC(=O)CCCCC)c(OC(=O)CCCCC)c2)cc1OC(=O)CCCCC` here?
**A.** 200 nM

**Q.** For `CCC(=O)Oc1ccc(C[C@@H](C)[C@@H](C)Cc2ccc(OC(=O)CC)c(OC(=O)CC)c2)cc1OC(=O)CC`, which AC50 is on record?
**A.** 300 nM

**Q.** With `CC(C)C(=O)Oc1ccc(C[C@@H](C)[C@@H](C)Cc2ccc(OC(=O)C(C)C)c(OC(=O)C(C)C)c2)cc1OC(=O)C(C)C` as the compound, how does the AC50 read?
**A.** 500 nM

Biological target: T2, Polyunsaturated fatty acid lipoxygenase ALOX15 (Homo sapiens) (UniProt P16050)
T2 sequence (whole entry): T1 sequence (P16050 whole entry)
Assay: Compound was evaluated for the percent increase in activation concentration of human reticulocyte 15-lipoxygenase (15-HLO)
Settings: not given

**Q.** With `CCCC(=O)Oc1ccc(C[C@@H](C)[C@@H](C)Cc2ccc(OC(=O)CCC)c(OC(=O)CCC)c2)cc1OC(=O)CCC` as the compound, how does the activation read?
**A.** 77%

**Q.** With `CCCCCC(=O)Oc1ccc(C[C@@H](C)[C@@H](C)Cc2ccc(OC(=O)CCCCC)c(OC(=O)CCCCC)c2)cc1OC(=O)CCCCC` as the compound, how does the activation read?
**A.** 70%

**Q.** With `CCC(=O)Oc1ccc(C[C@@H](C)[C@@H](C)Cc2ccc(OC(=O)CC)c(OC(=O)CC)c2)cc1OC(=O)CC` as the compound, how does the activation read?
**A.** 22%

**Q.** Which activation does the source give for `CC(C)C(=O)Oc1ccc(C[C@@H](C)[C@@H](C)Cc2ccc(OC(=O)C(C)C)c(OC(=O)C(C)C)c2)cc1OC(=O)C(C)C` here?
**A.** 70%

Biological target: T2, Polyunsaturated fatty acid lipoxygenase ALOX15 (Homo sapiens)
Assay: Inhibitory activity against human reticulocyte 15-lipoxygenase (15-HLO)
Settings: concentration not given here

**Q.** For `COc1cc(N)c(C[C@@H](C)[C@@H](C)Cc2cc(OC)c(OC)cc2N)cc1OC`, which inhibition is on record?
**A.** 0%

**Q.** With `CC(=O)Oc1ccc(C[C@@H](C)[C@@H](C)Cc2ccc(OC(C)=O)c(OC(C)=O)c2)cc1OC(C)=O` as the compound, how does the inhibition read?
**A.** 0%

**Q.** With `COc1cc(C[C@@H](C)[C@@H](C)Cc2cc(OC)c(OC)cc2[N+](=O)[O-])c([N+](=O)[O-])cc1OC` as the compound, how does the inhibition read?
**A.** 0%

**Q.** With `CCC(=O)Oc1cc(C[C@@H](C)[C@@H](C)Cc2cc(OC(=O)CC)c(OC(=O)CC)cc2[N+](=O)[O-])c([N+](=O)[O-])cc1OC(=O)CC` as the compound, how does the inhibition read?
**A.** 0%

**Q.** With `C[C@H](Cc1ccc(OCOC(=O)C(C)(C)C)c(OCOC(=O)C(C)(C)C)c1)[C@@H](C)Cc1ccc(OCOC(=O)C(C)(C)C)c(OCOC(=O)C(C)(C)C)c1` as the compound, how does the inhibition read?
**A.** 0%

Biological target: T2, Polyunsaturated fatty acid lipoxygenase ALOX15 (Homo sapiens)
Assay: Inhibitory activity against human reticulocyte 15-lipoxygenase (15-HLO); NI is no inhibition
Settings: not given

**Q.** For `COc1cc(C[C@@H](C)[C@@H](C)Cc2cc(OC)c(OC)cc2NC(C)=O)c(NC(C)=O)cc1OC`, which inhibition is on record?
**A.** inactive

Biological target: T3, Polyunsaturated fatty acid lipoxygenase ALOX12 (Homo sapiens) (UniProt P18054)
T3 sequence (whole entry): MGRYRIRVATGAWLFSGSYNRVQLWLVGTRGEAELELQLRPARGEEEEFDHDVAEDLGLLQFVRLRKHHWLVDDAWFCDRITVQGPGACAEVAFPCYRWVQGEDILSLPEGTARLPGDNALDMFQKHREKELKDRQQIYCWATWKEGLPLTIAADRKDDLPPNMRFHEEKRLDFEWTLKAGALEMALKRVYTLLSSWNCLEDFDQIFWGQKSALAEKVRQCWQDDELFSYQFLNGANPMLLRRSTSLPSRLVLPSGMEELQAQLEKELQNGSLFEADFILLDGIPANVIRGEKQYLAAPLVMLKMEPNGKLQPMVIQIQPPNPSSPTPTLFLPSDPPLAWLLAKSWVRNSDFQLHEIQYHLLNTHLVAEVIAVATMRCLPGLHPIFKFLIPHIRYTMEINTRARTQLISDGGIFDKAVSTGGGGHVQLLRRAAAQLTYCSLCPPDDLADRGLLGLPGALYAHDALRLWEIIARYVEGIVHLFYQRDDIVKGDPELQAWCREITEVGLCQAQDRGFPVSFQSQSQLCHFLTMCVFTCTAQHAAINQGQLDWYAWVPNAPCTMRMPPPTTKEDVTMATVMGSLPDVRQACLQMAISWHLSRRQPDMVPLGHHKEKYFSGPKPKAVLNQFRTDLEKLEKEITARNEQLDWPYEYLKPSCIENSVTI
Assay: % inhibition against human platelet 12-lipoxygenase (12-HLO)
Settings: concentration not given here

**Q.** For `COc1cc(N)c(C[C@@H](C)[C@@H](C)Cc2cc(OC)c(OC)cc2N)cc1OC`, which inhibition is on record?
**A.** 0%

**Q.** Which inhibition does the source give for `CCCC(=O)Oc1ccc(C[C@@H](C)[C@@H](C)Cc2ccc(OC(=O)CCC)c(OC(=O)CCC)c2)cc1OC(=O)CCC` here?
**A.** 0%

**Q.** With `CC(=O)Oc1ccc(C[C@@H](C)[C@@H](C)Cc2ccc(OC(C)=O)c(OC(C)=O)c2)cc1OC(C)=O` as the compound, how does the inhibition read?
**A.** 0%

**Q.** For `CCCCCC(=O)Oc1ccc(C[C@@H](C)[C@@H](C)Cc2ccc(OC(=O)CCCCC)c(OC(=O)CCCCC)c2)cc1OC(=O)CCCCC`, which inhibition is on record?
**A.** 0%

**Q.** Which inhibition does the source give for `COc1cc(C[C@@H](C)[C@@H](C)Cc2cc(OC)c(OC)cc2[N+](=O)[O-])c([N+](=O)[O-])cc1OC` here?
**A.** 0%

**Q.** With `CCC(=O)Oc1cc(C[C@@H](C)[C@@H](C)Cc2cc(OC(=O)CC)c(OC(=O)CC)cc2[N+](=O)[O-])c([N+](=O)[O-])cc1OC(=O)CC` as the compound, how does the inhibition read?
**A.** 0%

**Q.** With `CCC(=O)Oc1ccc(C[C@@H](C)[C@@H](C)Cc2ccc(OC(=O)CC)c(OC(=O)CC)c2)cc1OC(=O)CC` as the compound, how does the inhibition read?
**A.** 0%

**Q.** For `CC(C)C(=O)Oc1ccc(C[C@@H](C)[C@@H](C)Cc2ccc(OC(=O)C(C)C)c(OC(=O)C(C)C)c2)cc1OC(=O)C(C)C`, which inhibition is on record?
**A.** 0%

**Q.** Which inhibition does the source give for `C[C@H](Cc1ccc(OCOC(=O)C(C)(C)C)c(OCOC(=O)C(C)(C)C)c1)[C@@H](C)Cc1ccc(OCOC(=O)C(C)(C)C)c(OCOC(=O)C(C)(C)C)c1` here?
**A.** 0%

Biological target: T3, Polyunsaturated fatty acid lipoxygenase ALOX12 (Homo sapiens)
Assay: percent inhibition against human platelet 12-lipoxygenase (12-HLO); NI is no inhibition
Settings: not given

**Q.** Which inhibition does the source give for `COc1cc(C[C@@H](C)[C@@H](C)Cc2cc(OC)c(OC)cc2NC(C)=O)c(NC(C)=O)cc1OC` here?
**A.** inactive

Biological target: T4, Seed linoleate 13S-lipoxygenase-1 (Glycine max) (UniProt P08170)
T4 sequence (whole entry): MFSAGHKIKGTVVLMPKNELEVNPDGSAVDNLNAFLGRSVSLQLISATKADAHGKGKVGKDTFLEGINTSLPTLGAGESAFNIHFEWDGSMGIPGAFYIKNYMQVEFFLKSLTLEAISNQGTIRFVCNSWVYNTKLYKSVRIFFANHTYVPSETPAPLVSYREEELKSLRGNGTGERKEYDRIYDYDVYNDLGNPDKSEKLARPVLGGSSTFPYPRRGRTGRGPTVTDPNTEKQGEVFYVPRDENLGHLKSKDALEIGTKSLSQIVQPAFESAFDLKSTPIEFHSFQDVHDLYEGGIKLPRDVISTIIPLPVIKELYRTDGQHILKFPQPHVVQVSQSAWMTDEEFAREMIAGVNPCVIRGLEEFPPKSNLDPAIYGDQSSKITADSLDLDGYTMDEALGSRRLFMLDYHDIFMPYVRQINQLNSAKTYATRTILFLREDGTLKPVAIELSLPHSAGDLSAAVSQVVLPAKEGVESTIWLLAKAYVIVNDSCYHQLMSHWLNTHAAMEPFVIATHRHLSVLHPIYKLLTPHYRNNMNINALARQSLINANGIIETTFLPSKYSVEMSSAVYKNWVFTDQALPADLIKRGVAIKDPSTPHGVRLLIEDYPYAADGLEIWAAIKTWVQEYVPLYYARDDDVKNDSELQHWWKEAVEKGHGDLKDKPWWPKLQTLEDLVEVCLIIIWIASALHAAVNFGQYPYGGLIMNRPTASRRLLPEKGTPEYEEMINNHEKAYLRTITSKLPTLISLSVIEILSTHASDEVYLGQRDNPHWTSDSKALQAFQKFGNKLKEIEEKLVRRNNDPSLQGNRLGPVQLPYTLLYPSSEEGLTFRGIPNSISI
Assay: % inhibition against soybean 1-lipoxygenase (SLO)
Settings: not given

**Q.** Which inhibition does the source give for `COc1cc(N)c(C[C@@H](C)[C@@H](C)Cc2cc(OC)c(OC)cc2N)cc1OC` here?
**A.** 0%

**Q.** With `CCCC(=O)Oc1ccc(C[C@@H](C)[C@@H](C)Cc2ccc(OC(=O)CCC)c(OC(=O)CCC)c2)cc1OC(=O)CCC` as the compound, how does the inhibition read?
**A.** 0%

**Q.** For `CC(=O)Oc1ccc(C[C@@H](C)[C@@H](C)Cc2ccc(OC(C)=O)c(OC(C)=O)c2)cc1OC(C)=O`, which inhibition is on record?
**A.** 0%

**Q.** Which inhibition does the source give for `CCCCCC(=O)Oc1ccc(C[C@@H](C)[C@@H](C)Cc2ccc(OC(=O)CCCCC)c(OC(=O)CCCCC)c2)cc1OC(=O)CCCCC` here?
**A.** 0%

**Q.** Which inhibition does the source give for `COc1cc(C[C@@H](C)[C@@H](C)Cc2cc(OC)c(OC)cc2[N+](=O)[O-])c([N+](=O)[O-])cc1OC` here?
**A.** 0%

**Q.** Which inhibition does the source give for `CCC(=O)Oc1cc(C[C@@H](C)[C@@H](C)Cc2cc(OC(=O)CC)c(OC(=O)CC)cc2[N+](=O)[O-])c([N+](=O)[O-])cc1OC(=O)CC` here?
**A.** 0%

**Q.** Which inhibition does the source give for `CCC(=O)Oc1ccc(C[C@@H](C)[C@@H](C)Cc2ccc(OC(=O)CC)c(OC(=O)CC)c2)cc1OC(=O)CC` here?
**A.** 0%

**Q.** For `CC(C)C(=O)Oc1ccc(C[C@@H](C)[C@@H](C)Cc2ccc(OC(=O)C(C)C)c(OC(=O)C(C)C)c2)cc1OC(=O)C(C)C`, which inhibition is on record?
**A.** 0%

**Q.** For `C[C@H](Cc1ccc(OCOC(=O)C(C)(C)C)c(OCOC(=O)C(C)(C)C)c1)[C@@H](C)Cc1ccc(OCOC(=O)C(C)(C)C)c(OCOC(=O)C(C)(C)C)c1`, which inhibition is on record?
**A.** 0%

Biological target: T4, Seed linoleate 13S-lipoxygenase-1 (Glycine max)
Assay: percent inhibition against soybean 1-lipoxygenase (SLO);NI is no inhibition
Settings: not given

**Q.** Which inhibition does the source give for `COc1cc(C[C@@H](C)[C@@H](C)Cc2cc(OC)c(OC)cc2NC(C)=O)c(NC(C)=O)cc1OC` here?
**A.** inactive

Tested on: not listed separately
Assay: Inhibition ratio of human reticulocyte 15-lipoxygenase (15-HLO)/ human platelet 12-lipoxygenase (12-HLO); NI is no inhibition
Settings: not given

**Q.** Which inhibition does the source give for `COc1cc(C[C@@H](C)[C@@H](C)Cc2cc(OC)c(OC)cc2NC(C)=O)c(NC(C)=O)cc1OC` here?
**A.** inactive
